Patent US8546377B2 (AbbVie Inc., priority 2009, dated 2013)
Like-named read-outs stand apart in the source and are kept apart here. One block for each compound: values may come before it.

Tests used:
[1] = target: T1, 5HT2B receptors (Homo sapiens, UniProt P41595); test: Human 5-HT2B functional assay in CHO-K1 cells (calcium flux, FLIPR); format: cell-based
T1 construct: expressed in transfected cells; host or cells: CHO-K1 cells
In short: (§1)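 Frozen CHO-K1 cells over-expressing receptor, serum-starved overnight, loaded with Ca4 dye plus 2.5 mM probenecid for 60 min at room temperature. FLIPR fluorescence (ex 480/em 530 nm, 25° C) recorded 3 min after compound addition; 6-point 1:10 series from 10 μM, 0.2% DMSO. Response normalized to serotonin, 4-parameter fit gives EC50; Emax as % of serotonin.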

[2] = target: T2, h-5-HT6 receptor (Homo sapiens, UniProt P50406); test: Human 5-HT6 receptor radioligand binding assay ([3H]-LSD, HEK293 membranes)
T2 construct: expressed in transfected cells; host or cells: HEK293 cells (membrane preparation)
Description: (iv) Human 5-HT6 Receptor Radioligand Binding Assay
Preparation of Membranes by Ultrasonic Treatment and Differential Centrifugation
Cells from stable clonal cell lines expressing the corresponding receptor (5-HT6) were washed with PBS (without Ca^++, Mg^++) and harvested in PBS with 0.02% EDTA. The cells were collected by centrifugation at 500 g for 10 minutes at 4° C., washed with PBS and centrifuged (500 g, 10 minutes at 4° C.). The pellets were stored at −80° C. until use. For membrane preparation, the thawed cell pellet was resuspended in ice-cold sucrose buffer (0.25 M sucrose, 10 mM HEPES (pH 7.4), 1 mM phenylmethylsulfonyl fluoride (PMSF) in DMSO, 5 μg/ml Pepstatin-A, 3 mM EDTA, 0.025% Bacitracin) and homogenized with a Branson Sonifier W-250 (Settings: Timer 4; Output Control 3; Duty Cycle constant; 2 to 3 cycles). Cell disruption was checked with the aid of a microscope. Remaining unbroken cells were pelleted at 1,000 g for 10 minutes at 4° C. The sucrose buffer supernatant was then centrifuged at 60,000 g for 1 hour at 4° C. (Beckman Ultrazentrifuge XL 80). The pellet was resuspended in 30 mL of ice-cold Tris buffer (20 mM TRIS (pH 7.4), 5 μg/mL Pepstatin A, 0.1 mM PMSF, 3 mM EDTA) by pipetting through a 10 mL serological pipet and centrifuged for 1 hour at 4° C. at 60,000 g. A final resuspension was performed in a small volume of ice-cold Tris buffer (see above) by pressing through a serological pipet followed by ultrasonic treatment with a Branson Sonifier W-250 (Settings: Timer 1; Output Control 3; Duty Cycle constant; 1 cycle). Protein concentration was determined (BCA-Kit; Pierce) and aliquots stored at −80° C. or in liquid nitrogen for long-term storage.
Receptor Binding Experiments
All receptor binding experiments were carried out in the corresponding assay buffer in a total volume of 200 μL in the presence of various concentrations of test compound (10^−5 M to 10^−9 M, tenfold serial dilution, duplicate determinations). The assays were terminated by filtration on polyethylenimine (PEI 0.1% or 0.3%) presoaked Packard Unifilter Plates (GF/C or GF/B) with a Tomtec MachIII U 96 well-plate harvester. After the plates had been dried for 2 hours at 55° C. in a drying chamber scintillation cocktail (BetaPlate Scint; PerkinElmer) was added. Radioactivity was measured in a Microbeta Trilux two hours after the addition of the scintillation mixture.
5-HT6 Receptor Binding Assay
HEK293 cells stably expressing the h-5-HT6 receptor (NCBI Reference Sequence XM 001435) were cultured in RPMI1640 medium supplemented with 25 mM HEPES, 10% fetal calf serum and 1-2 mM glutamine. The membrane preparation was performed as described above. […] On the day of the assay, the membranes were thawed, diluted in assay buffer (50 mM Tris-HCl, 5 mM CaCl2, 0.1% ascorbic acid, 10 μM pargyline, pH 7.4) to a concentration of 8 μg protein/assay and homogenized by gentle vortexing. […] Non-specific binding was defined with 1 μM methiothepin. The binding reaction was carried out for 3.5 hours at room temperature. During the incubation, the plates were shaken on a plate shaker at 100 rpm and terminated by filtration on Packard Unifilter GF/C (0.1% PEI) plates, followed by 2 wash cycles with ice-cold 50 mM Tris-HCl, 5 mM CaCl2.
Data derived from liquid scintillation counting were analyzed by iterative non-linear regression analysis with the use of the Statistical Analysis System (SAS): a program similar to “LIGAND” as described by Munson and Rodbard (Anal. Biochem. 1980, 107, 220-239). Fitting was performed according to formulae described by Feldman (Anal. Biochem. 1972, 48, 317-338). IC50, nH and Ki values were expressed as geometrical mean.
The results of the receptor binding studies are expressed as receptor binding constants Ki(5-HT6) as described herein before, and given in Table 5.

[3] = target: T3, 5HT2C receptors (Homo sapiens, UniProt P28335); test: Human 5-HT2C functional assay in CHO-K1 cells (calcium flux, FLIPR); format: cell-based; design: expressed in transfected cells; host or cells: CHO-K1 cells; conditions: for Emax: CHO-K1, read-out: Emax (%), 5-HT2c Agonist Activity, CHO-K1 cells, percentage relative to the effect of serotonin
T3 sequence (P28335 33-458): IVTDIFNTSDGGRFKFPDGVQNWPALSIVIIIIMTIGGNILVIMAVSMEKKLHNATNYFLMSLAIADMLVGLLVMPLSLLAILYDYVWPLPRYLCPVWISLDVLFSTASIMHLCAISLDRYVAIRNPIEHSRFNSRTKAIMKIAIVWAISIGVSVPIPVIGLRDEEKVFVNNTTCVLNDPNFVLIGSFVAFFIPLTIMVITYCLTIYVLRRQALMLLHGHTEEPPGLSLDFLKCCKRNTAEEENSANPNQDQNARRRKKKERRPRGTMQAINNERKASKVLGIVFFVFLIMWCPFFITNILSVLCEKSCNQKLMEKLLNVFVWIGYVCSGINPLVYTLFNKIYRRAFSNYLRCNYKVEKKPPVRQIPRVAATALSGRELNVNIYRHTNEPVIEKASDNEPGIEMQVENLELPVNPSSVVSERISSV
In short: as §1

[4] = CHO-K1 cells over-expressing 5HT2B, calcium flux, read-out: EC50 (μM), 5-HT2B Agonist Activity
[5] = HEK293 membranes, 1 nM [3H]-lysergic acid diethylamide, 3.5 hours at room temperature, read-out: Ki (μM), 5-HT6 Agonist Site Radioligand Binding
[6] = CHO-K1 cells over-expressing 5HT2C, calcium flux, read-out: EC50 (μM), 5-HT2c Agonist Activity

T1 sequence (P41595 whole entry): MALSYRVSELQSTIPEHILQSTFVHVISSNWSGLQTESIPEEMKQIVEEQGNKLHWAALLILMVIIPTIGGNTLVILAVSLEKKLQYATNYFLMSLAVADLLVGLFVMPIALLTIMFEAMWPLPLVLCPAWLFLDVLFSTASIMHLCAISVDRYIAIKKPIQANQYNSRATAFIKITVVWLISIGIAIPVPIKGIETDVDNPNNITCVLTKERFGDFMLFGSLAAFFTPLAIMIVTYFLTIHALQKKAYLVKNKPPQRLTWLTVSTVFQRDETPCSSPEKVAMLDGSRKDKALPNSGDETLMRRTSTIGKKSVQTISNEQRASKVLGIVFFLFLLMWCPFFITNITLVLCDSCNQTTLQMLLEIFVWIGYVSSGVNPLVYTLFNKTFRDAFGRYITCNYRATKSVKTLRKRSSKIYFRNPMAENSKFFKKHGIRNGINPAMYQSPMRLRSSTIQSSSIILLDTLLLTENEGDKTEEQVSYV
T2 sequence (P50406 whole entry): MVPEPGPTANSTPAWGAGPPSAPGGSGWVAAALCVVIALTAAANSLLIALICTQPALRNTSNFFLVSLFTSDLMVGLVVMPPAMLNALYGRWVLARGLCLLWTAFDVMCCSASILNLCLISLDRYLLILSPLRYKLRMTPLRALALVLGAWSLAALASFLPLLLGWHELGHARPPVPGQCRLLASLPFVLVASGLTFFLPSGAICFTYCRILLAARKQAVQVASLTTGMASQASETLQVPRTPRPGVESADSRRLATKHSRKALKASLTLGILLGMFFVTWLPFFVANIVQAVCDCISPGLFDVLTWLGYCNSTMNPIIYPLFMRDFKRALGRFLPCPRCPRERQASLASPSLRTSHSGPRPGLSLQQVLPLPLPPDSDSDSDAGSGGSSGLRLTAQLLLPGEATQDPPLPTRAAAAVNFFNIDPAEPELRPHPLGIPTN

- EC50 [1, 4]: 0.9 µM
- Emax ([1]; CHO-K1 cells, percentage relative to the effect of serotonin, read-out: Emax (%), 5-HT2B Agonist Activity): 90%
- Ki [2, 5]: 0.017 µM
- EC50 [3, 6]: > 10 µM
SMILES: O=C1CC2CNCCN2c2ccc(S(=O)(=O)c3ccccc3)cc2N1 (stereo not drawn) [Example 112, 9-(phenylsulfonyl)-1,2,3,4,4a,5-hexahydropyrazino[1,2-a][1,5]benzodiazepin-6(7H)-one]

SMILES: CN1CCN2c3cccc(F)c3OCC[C@H]2C1 [Example 231, (4aS)-8-fluoro-3-methyl-2,3,4,4a,5,6-hexahydro-1H-pyrazino[2,1-d][1,5]benzoxazepine]
- EC50 [1]: > 10 µM
- Ki [2]: 0.855 µM
- EC50 [3]: 0.004 µM
- Emax [3]: 85%

- EC50 [1, 4]: > 10 µM
- Ki [2, 5]: 0.008 µM
- EC50 [3, 6]: > 10 µM
SMILES: O=C1NCC2CNCCN2c2ccc(NS(=O)(=O)c3cccc(C(F)(F)F)c3)cc21 (stereo not drawn) [Example 184, N-(7-oxo-1,2,3,4,4a,5,6,7-octahydropyrazino[1,2-a][1,4]benzodiazepin-9-yl)-3-(trifluoromethyl)benzenesulfonamide]

- Ki [2, 5]: 0.0378 µM
SMILES: O=C1CC2CNCCN2c2ccc(NS(=O)(=O)c3c(Cl)cccc3Cl)cc2N1 (stereo not drawn) [Example 119, 2,6-dichloro-N-(6-oxo-1,2,3,4,4a,5,6,7-octahydropyrazino[1,2-a][1,5]benzodiazepin-9-yl)benzenesulfonamide]

- Ki [2, 5]: 0.0092 µM
SMILES: O=C1CC2CNCCN2c2ccc(NS(=O)(=O)c3ccc(Cl)cc3)cc2N1 (stereo not drawn) [Example 102, 4-chloro-N-(6-oxo-1,2,3,4,4a,5,6,7-octahydropyrazino[1,2-a][1,5]benzodiazepin-9-yl)benzenesulfonamide]

SMILES: Cc1cccc2c1OCC[C@H]1CNCCN21 [Example 226, (4aS)-8-methyl-2,3,4,4a,5,6-hexahydro-1H-pyrazino[2,1-d][1,5]benzoxazepine]
- EC50 [1]: > 10 µM
- Ki [2]: 2.06 µM
- EC50 [3]: 0.0008 µM
- Emax [3]: 90%

- Ki [2, 5]: 0.0596 µM
SMILES: O=C1CC2CNCCN2c2ccc(NS(=O)(=O)c3cccc(F)c3)cc2N1 (stereo not drawn) [Example 104, 3-fluoro-N-(6-oxo-1,2,3,4,4a,5,6,7-octahydropyrazino[1,2-a][1,5]benzodiazepin-9-yl)benzenesulfonamide]

- Ki [2, 5]: 0.025 µM
- EC50 [3, 6]: > 100 µM
SMILES: O=C1CC2CNCCN2c2ccc(NS(=O)(=O)c3ccccc3)cc2N1 (stereo not drawn) [Example 76, N-(6-oxo-1,2,3,4,4a,5,6,7-octahydropyrazino[1,2-a][1,5]benzodiazepin-9-yl)benzenesulfonamide]

- Ki [2, 5]: 0.0223 µM
SMILES: O=C1CC2CNCCN2c2ccc(NS(=O)(=O)c3cccc(Cl)c3)cc2N1 (stereo not drawn) [Example 101, 3-chloro-N-(6-oxo-1,2,3,4,4a,5,6,7-octahydropyrazino[1,2-a][1,5]benzodiazepin-9-yl)benzenesulfonamide]

- Ki [2, 5]: 0.0475 µM
SMILES: Cc1cccc(S(=O)(=O)Nc2ccc3c(c2)NC(=O)CC2CNCCN32)c1 (stereo not drawn) [Example 100, 3-methyl-N-(6-oxo-1,2,3,4,4a,5,6,7-octahydropyrazino[1,2-a][1,5]benzodiazepin-9-yl)benzenesulfonamide]

- Ki [2, 5]: 0.0208 µM
SMILES: O=C1CC2CNCCN2c2ccc(NS(=O)(=O)c3ccc(F)cc3)cc2N1 (stereo not drawn) [Example 105, 4-fluoro-N-(6-oxo-1,2,3,4,4a,5,6,7-octahydropyrazino[1,2-a][1,5]benzodiazepin-9-yl)benzenesulfonamide]

- Ki [2, 5]: 0.026 µM
SMILES: COc1ccccc1S(=O)(=O)Nc1ccc2c(c1)NC(=O)CC1CNCCN21 (stereo not drawn) [Example 106, 2-methoxy-N-(6-oxo-1,2,3,4,4a,5,6,7-octahydropyrazino[1,2-a][1,5]benzodiazepin-9-yl)benzenesulfonamide]

- Ki [2, 5]: 0.0024 µM
SMILES: O=C1CC2CNCCN2c2ccc(NS(=O)(=O)c3ccccc3-c3ccccc3)cc2N1 (stereo not drawn) [Example 97, N-(6-oxo-1,2,3,4,4a,5,6,7-octahydropyrazino[1,2-a][1,5]benzodiazepin-9-yl)biphenyl-2-sulfonamide]

- Ki [2, 5]: 0.0181 µM
SMILES: O=C1CC2CNCCN2c2ccc(NS(=O)(=O)c3ccccc3OC(F)(F)F)cc2N1 (stereo not drawn) [Example 130, N-(6-oxo-1,2,3,4,4a,5,6,7-octahydropyrazino[1,2-a][1,5]benzodiazepin-9-yl)-2-(trifluoromethoxy)benzenesulfonamide]

- Ki [2, 5]: 0.0132 µM
SMILES: Cc1cc(C)cc(S(=O)(=O)Nc2ccc3c(c2)NC(=O)CC2CNCCN32)c1 (stereo not drawn) [Example 129, 3,5-dimethyl-N-(6-oxo-1,2,3,4,4a,5,6,7-octahydropyrazino[1,2-a][1,5]benzodiazepin-9-yl)benzenesulfonamide]
